Data on 1 compound can be found in ChEMBL document CHEMBL5380809, “Discovery of Novel N-Hydroxy-1,2,4-oxadiazole-5-formamides as ASM Direct Inhibitors for the Treatment of Atherosclerosis” (J Med Chem, 2023).

Structures are written as SMILES. The source made the active and inactive calls. The rule behind the calls is not given here.

In series [1] the test system is HUVEC. Description: Downregulation of extracellular ceramide level in LPS-induced HUVEC cells upto 5 uM measured after 22 hrs by ELISA method. The following applies: Homo sapiens. The class given is functional, cell-based.
For series [2], the system named is HUVEC. The experiment in a line: Effect on extracellular S1P level in Ox-LDL-induced HUVEC cells upto 5 uM measured after 22 hrs by ELISA method. Type of series: functional, cell-based. Conditions: Homo sapiens.
In series [3] the test system is Mus musculus. The experiment in a line: Antiatherosclerotic activity in high-fat diet fed ApoE-/- mouse assessed as reduction in plasma Ox-LDL-C level at 40 mg/kg, ip bid measured after 8 weeks. The class given is functional, organism-based.
Series [4] is described as follows: Oral bioavailability in ICR mouse at 10 mg/kg measured for 0.083 to 24 hrs by LC-MS/MS analysis. The class given is ADME, organism-based. The following applies: in vivo, time 0.083-24 hrs.
Series [5] in a line: AUC (0 to infinity ) in ICR mouse at 1 mg/kg, iv measured for 0.083 to 24 hrs by LC-MS/MS analysis. The class given is ADME, organism-based. The following applies: in vivo. Further details: time upper 24 hrs, time lower 0.083 hrs, dose 1 mg/kg, route iv.
In series [6] the test system is Mus musculus. The experiment in a line: Antiatherosclerotic activity in high-fat diet fed ApoE-/- mouse assessed as reduction in aortic arch lipid accumulation at 12 to 40 mg/kg, ip bid measured after 8 weeks. The class given is functional, organism-based. Conditions: dose 12-40 mg/kg.
Series [7] concerns Mus musculus. Description: Antiatherosclerotic activity in high-fat diet fed ApoE-/- mouse assessed as reduction in plasma total triacylglycerol level at 12 to 40 mg/kg, ip bid measured after 8 weeks. Type of series: functional, organism-based. Conditions: dose 12-40 mg/kg.
Series [8] can be described thus: AUC (0 to infinity) in ICR mouse at 10 mg/kg, po measured for 0.083 to 24 hrs by LC-MS/MS analysis. The class given is ADME, organism-based. Set-up: time lower 0.083 hrs, dose 10 mg/kg, time upper 24 hrs, route po. Conditions: in vivo.
Series [9] concerns HUVEC. Description: Downregulation of intracellular ceramide level in LPS-induced HUVEC cells at 5 uM measured after 22 hrs by ELISA method. Type of series: functional, cell-based. The following applies: Homo sapiens.
In series [10] the test system is HUVEC. The experiment in a line: Cytotoxicity against HUVEC cells assessed as cell growth inhibition at 0.5 to 20 uM incubated for 24 to 48 hrs by MTT assay. Type of series: toxicity, cell-based. Conditions: human, dose lower 0.5 µM, time lower 24 hrs, dose upper 20 µM, time upper 48 hrs.
Series [11] in a line: MRT (0 to infinity) in ICR mouse at 10 mg/kg, po measured for 0.083 to 24 hrs by LC-MS/MS analysis. Type of series: ADME, organism-based. The following applies: in vivo, time 0.083-24 hrs.
Series [12] has as its system HUVEC. The experiment in a line: Upregulation of intracellular sphingomyelin level in Ox-LDL-induced HUVEC cells measured after 22 hrs by ELISA method. The following applies: Homo sapiens, dose <= 5.0 µM. The class given is functional, cell-based.
In series [13] the test system is HUVEC. The experiment in a line: Effect on extracellular S1P level in LPS-induced HUVEC cells upto 5 uM measured after 22 hrs by ELISA method. Type of series: functional, cell-based. The following applies: Homo sapiens.
Series [14] deals with HUVEC. Description: Downregulation of extracellular ceramide level in Ox-LDL-induced HUVEC cells upto 5 uM measured after 22 hrs by ELISA method. The class given is functional, cell-based. The following applies: Homo sapiens.
Series [15] can be described thus: MRT (0 to t) in ICR mouse at 10 mg/kg, po measured for 0.083 to 24 hrs by LC-MS/MS analysis. Type of series: ADME, organism-based. The following applies: in vivo, time 0.083-24 hrs.
The test system of series [16] is HUVEC. The experiment in a line: Effect on extracellular S1P level in HUVEC cells upto 5 uM measured after 22 hrs by ELISA method. Type of series: functional, cell-based. Conditions: Homo sapiens.
Series [17] has as its system HUVEC. The experiment in a line: Antiinflammatory activity against HUVEC cells assessed as decrease in LPS-induced TNF-alpha level measured after 22 hrs by ELISA method. The following applies: Homo sapiens, dose 1-5 µM. Type of series: functional, cell-based.
Series [18] relates to Mus musculus. The experiment in a line: In vivo inhibition of aSMase in C57BL/6 mouse assessed as decrease in plasma sphingomyelin level at 6 to 40 mg/kg, ip bid for 1 week by ELISA method. The class given is functional, organism-based. The following applies: dose 6-40 mg/kg, time 1.0 weeks.
Series [19] has as its system Mus musculus. The experiment in a line: In vivo inhibition of aSMase in C57BL/6 mouse assessed as decrease in plasma S1P level at 6 to 40 mg/kg, ip bid for 1 week by ELISA method. The class given is functional, organism-based. Conditions: dose 6-40 mg/kg, time 1.0 weeks.
Series [20] has as its system HUVEC. Description: Antiinflammatory activity against HUVEC cells assessed as decrease in Ox-LDL-induced IL-6 mRNA level at 5 uM measured after 22 hrs by RT-PCR analysis. Type of series: functional, cell-based. Conditions: Homo sapiens.

With `O=C(NO)c1nc(-c2ccc(COc3ccc(Br)cc3)cc2)no1`, the outcome in the series on HUVEC [1], in the series on Mus musculus [3], in the series with Mus musculus [6], in the series on HUVEC [9], in the series with HUVEC [14] and with Mus musculus [18] was Active. For the same compound, in the series on HUVEC [20], the result was Active. Moreover, the result in the series with HUVEC [2], in the series on Mus musculus [7], in the series with HUVEC [13], with HUVEC [16] and with Mus musculus [19] was inactive. The bioavailability in series [4] amounted to 35.4%. Besides, the AUC(0-inf) in series [5] was found to be 228 ng·h/mL; in [8], 809 ng·h/mL. In addition, the Activity result was “Non-Toxic” in the series on HUVEC [10], “Dose-Dependent Effect” with HUVEC [12] and “Dose-Dependent Effect” in the series with HUVEC [17]. In series [11], this compound showed an MRT inf of 21 min. The compound further showed an MRT last in series [15] of 19.2 min.
